Molecules are shown by their SMILES.

Results on 6 compounds are retold here after ChEMBL document CHEMBL5212743, “Selectivity Literature for EUbOPEN Chemogenomics Library wave 3” (2023).

Assay [1] has as its target Dual specificity protein kinase CLK2 (Homo sapiens, UniProt P49760). In words: Selectivity interaction (NanoBRET assay (HEK293T cells)) EUB0000009b CLK2.
Assay [2] concerns the target Dual specificity tyrosine-phosphorylation-regulated kinase 1B (Homo sapiens, UniProt Q9Y463). In words: Selectivity interaction (NanoBRET assay (HEK293T cells)) EUB0000009b DYRK1B.
In assay [3] the target is Dual specificity tyrosine-phosphorylation-regulated kinase 1A (Homo sapiens, UniProt Q13627). In words: Selectivity interaction (NanoBRET assay (HEK293T cells)) EUB0000009b DYRK1A.
Assay [4] has as its target Dual specificity tyrosine-phosphorylation-regulated kinase 2 (Homo sapiens, UniProt Q92630). Description: Selectivity interaction (NanoBRET assay (HEK293T cells)) EUB0000009b DYRK2.
Assay [5] has as its target Tyrosine-protein kinase Fes/Fps (Homo sapiens, UniProt P07332). Description: Selectivity interaction (Z’-LYTE assay (SelectScreen Invitrogen)) EUB0000690a FES.
Assay [6] has as its target Epidermal growth factor receptor (Homo sapiens, UniProt P00533, L858R). In words: (§1) Selectivity interaction (Z’-LYTE assay (SelectScreen Invitrogen)) EUB0000690a EGFR.
Assay [7] addresses Epidermal growth factor receptor (Homo sapiens, UniProt P00533, T790M). The assay is described as §1.
The target in assay [8] is High affinity nerve growth factor receptor (Homo sapiens, UniProt P04629). Description: Selectivity interaction (Z’-LYTE assay (SelectScreen Invitrogen)) EUB0000690a NTRK1.
The target of assay [9] is Tyrosine-protein kinase JAK2 (Homo sapiens, UniProt O60674). In words: Selectivity interaction (Z’-LYTE assay (SelectScreen Invitrogen)) EUB0000690a JAK2.
Assay [10] has as its target Leukocyte tyrosine kinase receptor (Homo sapiens, UniProt P29376). In words: Selectivity interaction (Z’-LYTE assay (SelectScreen Invitrogen)) EUB0000690a LTK.
Assay [11] deals with Tyrosine-protein kinase Fer (Homo sapiens, UniProt P16591). Description: Selectivity interaction (Z’-LYTE assay (SelectScreen Invitrogen)) EUB0000690a FER.
Assay [12] concerns the target Tyrosine-protein kinase FRK (Homo sapiens, UniProt P42685). Description: Selectivity interaction (Z’-LYTE assay (SelectScreen Invitrogen)) EUB0000690a FRK.
In assay [13] the target is Protein-tyrosine kinase 2-beta (Homo sapiens, UniProt Q14289). In words: Selectivity interaction (Z’-LYTE assay (SelectScreen Invitrogen)) EUB0000690a PTK2B.
The target of assay [14] is NT-3 growth factor receptor (Homo sapiens, UniProt Q16288). In words: Selectivity interaction (Z’-LYTE assay (SelectScreen Invitrogen)) EUB0000690a NTRK3.
For assay [15], the target named is Focal adhesion kinase 1 (Homo sapiens, UniProt Q05397). In words: Selectivity interaction (Z’-LYTE assay (SelectScreen Invitrogen)) EUB0000690a PTK2.
Sequence of Focal adhesion kinase 1 (Q05397 whole entry): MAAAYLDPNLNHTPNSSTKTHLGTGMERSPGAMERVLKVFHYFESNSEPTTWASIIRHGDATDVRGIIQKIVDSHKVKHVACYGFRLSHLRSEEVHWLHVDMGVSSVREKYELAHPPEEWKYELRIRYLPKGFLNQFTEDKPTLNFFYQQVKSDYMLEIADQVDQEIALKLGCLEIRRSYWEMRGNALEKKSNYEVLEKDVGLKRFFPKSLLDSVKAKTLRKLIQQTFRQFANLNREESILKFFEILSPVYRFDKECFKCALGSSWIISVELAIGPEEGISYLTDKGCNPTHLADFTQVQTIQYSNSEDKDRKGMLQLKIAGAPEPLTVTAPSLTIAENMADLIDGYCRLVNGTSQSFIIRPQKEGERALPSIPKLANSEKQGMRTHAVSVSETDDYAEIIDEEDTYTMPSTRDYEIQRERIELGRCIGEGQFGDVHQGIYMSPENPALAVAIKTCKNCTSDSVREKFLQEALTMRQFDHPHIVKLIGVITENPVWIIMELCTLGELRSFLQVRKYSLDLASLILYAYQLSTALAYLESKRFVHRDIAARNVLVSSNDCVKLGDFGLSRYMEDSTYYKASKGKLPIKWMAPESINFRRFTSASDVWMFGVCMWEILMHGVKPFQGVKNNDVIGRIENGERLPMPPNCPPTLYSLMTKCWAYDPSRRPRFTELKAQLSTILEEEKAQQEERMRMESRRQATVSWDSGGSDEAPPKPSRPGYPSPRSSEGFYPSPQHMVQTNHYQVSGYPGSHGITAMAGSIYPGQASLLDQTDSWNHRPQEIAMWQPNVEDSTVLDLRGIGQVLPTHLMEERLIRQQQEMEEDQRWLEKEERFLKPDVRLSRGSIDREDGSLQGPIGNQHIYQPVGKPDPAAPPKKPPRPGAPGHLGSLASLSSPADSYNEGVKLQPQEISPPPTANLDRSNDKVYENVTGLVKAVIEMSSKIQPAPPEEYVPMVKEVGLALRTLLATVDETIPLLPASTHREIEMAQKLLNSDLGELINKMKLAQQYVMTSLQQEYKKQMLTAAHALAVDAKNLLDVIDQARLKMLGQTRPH
Assay [16] deals with Activated CDC42 kinase 1 (Homo sapiens, UniProt Q07912). In words: Selectivity interaction (Z’-LYTE assay (SelectScreen Invitrogen)) EUB0000690a TNK2.
In assay [17] the target is Sodium channel protein type 2 subunit alpha (Homo sapiens, UniProt Q99250). As to conditions: at 10 µM.
Sequence of Sodium channel protein type 2 subunit alpha (Q99250 whole entry, looked up): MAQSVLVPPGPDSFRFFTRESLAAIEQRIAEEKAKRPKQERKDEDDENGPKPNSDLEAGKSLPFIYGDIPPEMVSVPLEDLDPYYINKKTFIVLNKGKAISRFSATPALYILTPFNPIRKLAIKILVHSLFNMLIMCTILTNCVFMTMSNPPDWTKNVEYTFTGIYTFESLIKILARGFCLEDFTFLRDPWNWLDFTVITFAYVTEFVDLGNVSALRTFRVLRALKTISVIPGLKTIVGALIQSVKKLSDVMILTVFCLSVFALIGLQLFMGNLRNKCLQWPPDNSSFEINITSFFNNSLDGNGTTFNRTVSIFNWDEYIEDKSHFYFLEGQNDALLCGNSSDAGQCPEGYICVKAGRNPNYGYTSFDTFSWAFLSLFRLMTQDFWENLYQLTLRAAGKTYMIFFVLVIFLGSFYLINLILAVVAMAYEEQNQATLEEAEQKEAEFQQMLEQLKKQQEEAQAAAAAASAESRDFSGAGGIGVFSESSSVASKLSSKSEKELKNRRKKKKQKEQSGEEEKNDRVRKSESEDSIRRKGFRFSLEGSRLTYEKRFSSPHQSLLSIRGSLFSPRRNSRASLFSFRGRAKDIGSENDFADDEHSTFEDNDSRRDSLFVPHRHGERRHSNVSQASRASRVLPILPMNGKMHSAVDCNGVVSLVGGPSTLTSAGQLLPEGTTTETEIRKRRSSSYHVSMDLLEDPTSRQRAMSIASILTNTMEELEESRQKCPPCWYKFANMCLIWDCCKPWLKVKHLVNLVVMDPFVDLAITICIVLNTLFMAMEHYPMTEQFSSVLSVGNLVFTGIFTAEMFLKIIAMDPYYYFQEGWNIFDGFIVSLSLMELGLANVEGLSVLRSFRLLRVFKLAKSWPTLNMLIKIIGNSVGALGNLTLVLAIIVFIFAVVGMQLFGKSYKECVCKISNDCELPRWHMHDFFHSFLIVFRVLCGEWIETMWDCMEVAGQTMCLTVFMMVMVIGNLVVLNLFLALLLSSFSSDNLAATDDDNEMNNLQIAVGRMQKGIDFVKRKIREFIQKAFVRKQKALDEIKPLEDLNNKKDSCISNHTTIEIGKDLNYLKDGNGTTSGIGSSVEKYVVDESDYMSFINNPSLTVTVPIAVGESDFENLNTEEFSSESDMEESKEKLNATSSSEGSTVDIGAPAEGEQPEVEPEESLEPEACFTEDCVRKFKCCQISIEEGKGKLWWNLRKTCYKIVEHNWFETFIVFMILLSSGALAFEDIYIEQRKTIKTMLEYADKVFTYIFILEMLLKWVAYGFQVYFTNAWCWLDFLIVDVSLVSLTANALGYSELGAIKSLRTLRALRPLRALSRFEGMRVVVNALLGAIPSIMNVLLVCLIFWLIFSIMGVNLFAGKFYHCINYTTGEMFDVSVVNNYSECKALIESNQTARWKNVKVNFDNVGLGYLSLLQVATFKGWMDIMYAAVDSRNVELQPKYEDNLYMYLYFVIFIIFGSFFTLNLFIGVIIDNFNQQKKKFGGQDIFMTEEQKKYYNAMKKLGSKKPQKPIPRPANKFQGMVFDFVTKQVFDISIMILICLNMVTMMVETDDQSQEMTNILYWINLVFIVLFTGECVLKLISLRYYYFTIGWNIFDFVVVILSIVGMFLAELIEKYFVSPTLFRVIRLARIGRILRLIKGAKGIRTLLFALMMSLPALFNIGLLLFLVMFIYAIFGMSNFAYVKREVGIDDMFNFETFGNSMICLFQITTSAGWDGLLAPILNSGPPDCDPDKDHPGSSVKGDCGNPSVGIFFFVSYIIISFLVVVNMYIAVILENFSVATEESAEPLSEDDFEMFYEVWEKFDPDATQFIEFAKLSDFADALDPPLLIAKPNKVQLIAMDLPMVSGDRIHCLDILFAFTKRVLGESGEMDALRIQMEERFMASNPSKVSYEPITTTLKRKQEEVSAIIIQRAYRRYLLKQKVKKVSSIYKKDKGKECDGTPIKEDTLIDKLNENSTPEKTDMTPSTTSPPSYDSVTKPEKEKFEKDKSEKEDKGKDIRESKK
Assay [18] has as its target RNA 5'-monophosphate methyltransferase (Homo sapiens) (UniProt Q7Z5W3). As to conditions: at 50 µM.
Assay [19] has as its target Sigma non-opioid intracellular receptor 1 (Homo sapiens, UniProt Q99720). In words: Selectivity interaction (GPCR panel (PDSP screen)) EUB0000103c SIGMAR1.
For assay [20], the target named is Histone-arginine methyltransferase CARM1 (Homo sapiens) (UniProt Q86X55).
The target in assay [21] is Sigma intracellular receptor 2 (Homo sapiens, UniProt Q5BJF2). Description: Selectivity interaction (GPCR panel (PDSP screen)) EUB0000103c TMEM97.
The target of assay [22] is Protein arginine N-methyltransferase 6 (Homo sapiens, UniProt Q96LA8).
Assay [23] addresses T1, Cyclin-G-associated kinase (Homo sapiens) (UniProt O14976).
T1 sequence (whole entry): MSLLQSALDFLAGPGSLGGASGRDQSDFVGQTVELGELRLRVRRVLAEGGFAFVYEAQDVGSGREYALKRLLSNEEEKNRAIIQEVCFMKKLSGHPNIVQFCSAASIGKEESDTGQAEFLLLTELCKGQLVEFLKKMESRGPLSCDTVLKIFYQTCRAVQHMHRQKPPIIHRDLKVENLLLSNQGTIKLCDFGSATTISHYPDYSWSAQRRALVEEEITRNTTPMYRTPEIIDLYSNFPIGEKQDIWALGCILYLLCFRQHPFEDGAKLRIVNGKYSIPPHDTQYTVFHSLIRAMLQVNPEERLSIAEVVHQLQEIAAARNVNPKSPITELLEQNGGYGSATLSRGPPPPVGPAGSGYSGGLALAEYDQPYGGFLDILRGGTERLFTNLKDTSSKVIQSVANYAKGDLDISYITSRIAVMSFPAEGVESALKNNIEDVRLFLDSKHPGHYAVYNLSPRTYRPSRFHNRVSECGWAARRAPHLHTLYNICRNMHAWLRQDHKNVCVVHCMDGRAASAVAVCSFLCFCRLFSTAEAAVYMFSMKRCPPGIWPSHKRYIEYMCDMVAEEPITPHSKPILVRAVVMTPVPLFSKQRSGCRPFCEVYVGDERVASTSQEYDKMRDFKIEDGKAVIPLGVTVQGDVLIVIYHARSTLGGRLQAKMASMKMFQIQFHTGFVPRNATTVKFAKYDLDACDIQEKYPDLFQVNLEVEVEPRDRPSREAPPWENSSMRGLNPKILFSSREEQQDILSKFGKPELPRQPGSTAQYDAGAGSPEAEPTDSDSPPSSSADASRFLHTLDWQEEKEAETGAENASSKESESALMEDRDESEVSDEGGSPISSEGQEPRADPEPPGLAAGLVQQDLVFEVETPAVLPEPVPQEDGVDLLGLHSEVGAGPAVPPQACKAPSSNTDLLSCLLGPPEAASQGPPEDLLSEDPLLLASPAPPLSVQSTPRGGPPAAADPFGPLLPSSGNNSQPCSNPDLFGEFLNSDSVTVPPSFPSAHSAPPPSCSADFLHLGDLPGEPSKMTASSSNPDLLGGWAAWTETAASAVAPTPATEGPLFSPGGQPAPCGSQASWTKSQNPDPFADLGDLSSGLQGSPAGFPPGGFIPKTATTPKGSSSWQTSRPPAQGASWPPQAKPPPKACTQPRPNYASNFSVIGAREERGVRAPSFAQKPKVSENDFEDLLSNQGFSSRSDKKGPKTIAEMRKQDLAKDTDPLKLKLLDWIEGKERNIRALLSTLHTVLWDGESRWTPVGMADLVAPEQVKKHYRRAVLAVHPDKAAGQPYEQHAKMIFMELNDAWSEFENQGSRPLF
In words: Selectivity interaction (KinomeScan (DiscoverX)) EUB0000717a GAK. As to conditions: at 1 µM.

In assay [24] the target is Sodium-dependent dopamine transporter (Homo sapiens, UniProt Q01959). Description: Selectivity interaction (GPCR panel (PDSP screen)) EUB0000717a SLC6A3.
The target in assay [25] is BMP-2-inducible protein kinase (Homo sapiens) (UniProt Q9NSY1). In words: Selectivity interaction (KinomeScan (DiscoverX)) EUB0000717a BMP2K. As to conditions: at 1 µM.
Assay [26] concerns the target T2, Bromodomain-containing protein 4 (Homo sapiens, UniProt O60885). Description: (§2) Selectivity interaction (Bromodomain panel (DSF assay)) EUB0000195c BRD4.
Assay [27] concerns the target Histone acetyltransferase p300 (Homo sapiens) (UniProt Q09472). In words: Selectivity interaction (DSF assay) EUB0000195c EP300.
In assay [28] the target is T3, CREB-binding protein (Homo sapiens, UniProt Q92793).
The target in assay [29] is T2, Bromodomain-containing protein 4. In words: Selectivity interaction (ITC) EUB0000195c BRD4.
For assay [30], the target named is Bromodomain-containing protein 3 (Homo sapiens) (UniProt Q15059). Description: Selectivity interaction (Bromodomain panel (DSF assay)) EUB0000195c BRD3.
Sequence of Bromodomain-containing protein 3 (Homo sapiens) (Q15059 2-726 limits assumed): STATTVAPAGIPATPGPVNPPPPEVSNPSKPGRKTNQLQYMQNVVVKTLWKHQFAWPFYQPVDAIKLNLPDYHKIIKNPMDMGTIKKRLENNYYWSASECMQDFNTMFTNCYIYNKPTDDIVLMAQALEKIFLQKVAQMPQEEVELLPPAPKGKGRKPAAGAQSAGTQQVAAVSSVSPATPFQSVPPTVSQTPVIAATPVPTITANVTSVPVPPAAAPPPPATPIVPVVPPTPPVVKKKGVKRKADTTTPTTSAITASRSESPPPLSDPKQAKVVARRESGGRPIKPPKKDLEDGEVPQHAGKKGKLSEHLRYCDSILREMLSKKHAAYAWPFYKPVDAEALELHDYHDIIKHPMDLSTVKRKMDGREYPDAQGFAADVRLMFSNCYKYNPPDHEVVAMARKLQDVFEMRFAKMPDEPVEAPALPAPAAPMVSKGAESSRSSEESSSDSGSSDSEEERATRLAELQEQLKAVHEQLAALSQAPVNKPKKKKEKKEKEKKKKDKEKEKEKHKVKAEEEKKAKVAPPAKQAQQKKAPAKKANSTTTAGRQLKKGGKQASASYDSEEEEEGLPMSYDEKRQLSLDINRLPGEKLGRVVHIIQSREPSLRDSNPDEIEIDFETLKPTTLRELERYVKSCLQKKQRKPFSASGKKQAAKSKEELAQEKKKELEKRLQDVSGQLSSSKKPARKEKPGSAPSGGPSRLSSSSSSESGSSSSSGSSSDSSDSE
Assay [31] concerns the target Bromodomain-containing protein 2 (Homo sapiens) (UniProt P25440). In words: Selectivity interaction (Bromodomain panel (DSF assay)) EUB0000195c BRD2.
In assay [32] the target is T4, Alpha-1A adrenergic receptor (Homo sapiens) (UniProt P35348).
T4 sequence (whole entry): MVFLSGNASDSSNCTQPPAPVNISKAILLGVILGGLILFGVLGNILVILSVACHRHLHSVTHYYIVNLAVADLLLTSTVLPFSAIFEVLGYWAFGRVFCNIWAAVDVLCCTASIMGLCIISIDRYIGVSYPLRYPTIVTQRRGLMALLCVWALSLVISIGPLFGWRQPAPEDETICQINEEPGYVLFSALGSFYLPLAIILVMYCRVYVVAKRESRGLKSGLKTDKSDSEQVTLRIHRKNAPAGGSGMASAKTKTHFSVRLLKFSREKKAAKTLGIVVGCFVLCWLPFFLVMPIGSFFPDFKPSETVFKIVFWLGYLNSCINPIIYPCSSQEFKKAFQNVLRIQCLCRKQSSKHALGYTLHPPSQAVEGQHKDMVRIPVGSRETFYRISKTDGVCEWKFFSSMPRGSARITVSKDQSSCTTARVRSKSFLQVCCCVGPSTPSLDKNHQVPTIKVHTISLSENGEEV
Description: Selectivity interaction (CEREP panel (nuclear receptors, ion channels, and […] other enzymes, including 10 kinases, 9 proteases, and 5 phosphodiesterases)) EUB0000195c ADRA1A. As to conditions: at 10 µM.

Assay [33] deals with T3, CREB-binding protein. The source holds these as a separate data set.
Assay [34] deals with T2, Bromodomain-containing protein 4. Described as §2. The source holds these as a separate data set.
Assay [35] concerns the target T5, Muscarinic acetylcholine receptor M2 (Homo sapiens) (UniProt P08172).
T5 sequence (whole entry): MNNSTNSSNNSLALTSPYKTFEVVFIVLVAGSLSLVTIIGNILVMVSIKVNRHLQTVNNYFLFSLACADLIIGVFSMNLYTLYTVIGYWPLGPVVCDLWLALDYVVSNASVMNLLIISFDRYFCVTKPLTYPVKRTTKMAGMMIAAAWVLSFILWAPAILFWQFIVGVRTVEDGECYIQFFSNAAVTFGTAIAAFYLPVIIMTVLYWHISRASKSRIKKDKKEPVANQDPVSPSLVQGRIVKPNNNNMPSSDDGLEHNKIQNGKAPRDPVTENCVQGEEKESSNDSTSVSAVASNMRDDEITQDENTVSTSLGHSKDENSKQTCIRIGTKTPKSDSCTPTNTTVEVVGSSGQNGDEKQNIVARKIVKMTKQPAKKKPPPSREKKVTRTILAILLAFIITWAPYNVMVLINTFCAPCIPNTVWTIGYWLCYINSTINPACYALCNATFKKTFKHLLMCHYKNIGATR
In words: Selectivity interaction (CEREP panel (nuclear receptors, ion channels, and […] other enzymes, including 10 kinases, 9 proteases, and 5 phosphodiesterases)) EUB0000195c CHRM2. As to conditions: at 10 µM.

The target of assay [36] is Kappa-type opioid receptor (Homo sapiens, UniProt P41145). As to conditions: at 10 µM.
The target of assay [37] is T2, Bromodomain-containing protein 4. In words: Selectivity interaction (ITC) EUB0000205c BRD4.
Assay [38] has as its target Sodium-dependent noradrenaline transporter (Homo sapiens, UniProt P23975). As to conditions: at 10 µM.
Assay [39] concerns the target T6, Adenosine receptor A1 (Homo sapiens) (UniProt P30542).
T6 sequence (whole entry): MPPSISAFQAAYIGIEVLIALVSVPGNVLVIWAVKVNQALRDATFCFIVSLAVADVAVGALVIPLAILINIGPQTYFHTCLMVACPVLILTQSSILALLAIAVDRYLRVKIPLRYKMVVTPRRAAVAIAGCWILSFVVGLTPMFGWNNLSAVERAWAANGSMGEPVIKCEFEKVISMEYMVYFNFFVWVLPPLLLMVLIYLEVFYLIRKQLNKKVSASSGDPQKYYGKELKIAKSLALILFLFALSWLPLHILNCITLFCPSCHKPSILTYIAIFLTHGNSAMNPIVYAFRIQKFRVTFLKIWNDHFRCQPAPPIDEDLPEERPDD
As to conditions: at 10 µM.

Sequence of Tyrosine-protein kinase Fes/Fps (P07332 whole entry): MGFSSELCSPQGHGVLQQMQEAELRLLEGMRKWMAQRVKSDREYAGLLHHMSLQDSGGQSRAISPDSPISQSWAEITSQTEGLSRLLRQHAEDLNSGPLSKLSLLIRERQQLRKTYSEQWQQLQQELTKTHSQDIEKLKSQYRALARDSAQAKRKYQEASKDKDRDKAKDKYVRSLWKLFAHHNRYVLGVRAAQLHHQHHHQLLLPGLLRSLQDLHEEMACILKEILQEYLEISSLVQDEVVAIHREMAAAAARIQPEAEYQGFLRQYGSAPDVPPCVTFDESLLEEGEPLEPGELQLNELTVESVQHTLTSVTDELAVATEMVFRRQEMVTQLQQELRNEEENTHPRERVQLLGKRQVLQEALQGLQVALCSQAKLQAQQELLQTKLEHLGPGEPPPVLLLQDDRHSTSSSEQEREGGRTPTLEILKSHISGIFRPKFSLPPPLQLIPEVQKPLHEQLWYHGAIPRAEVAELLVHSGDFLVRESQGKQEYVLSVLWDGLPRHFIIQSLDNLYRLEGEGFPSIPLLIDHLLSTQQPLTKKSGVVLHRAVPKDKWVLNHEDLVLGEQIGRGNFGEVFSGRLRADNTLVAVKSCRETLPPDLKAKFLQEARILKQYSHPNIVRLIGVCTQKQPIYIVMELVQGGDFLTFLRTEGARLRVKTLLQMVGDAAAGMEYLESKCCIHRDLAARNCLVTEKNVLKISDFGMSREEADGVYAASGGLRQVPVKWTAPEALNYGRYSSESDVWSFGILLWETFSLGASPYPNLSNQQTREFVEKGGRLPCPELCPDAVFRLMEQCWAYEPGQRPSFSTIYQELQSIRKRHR
Sequence of Tyrosine-protein kinase FRK (P42685 whole entry): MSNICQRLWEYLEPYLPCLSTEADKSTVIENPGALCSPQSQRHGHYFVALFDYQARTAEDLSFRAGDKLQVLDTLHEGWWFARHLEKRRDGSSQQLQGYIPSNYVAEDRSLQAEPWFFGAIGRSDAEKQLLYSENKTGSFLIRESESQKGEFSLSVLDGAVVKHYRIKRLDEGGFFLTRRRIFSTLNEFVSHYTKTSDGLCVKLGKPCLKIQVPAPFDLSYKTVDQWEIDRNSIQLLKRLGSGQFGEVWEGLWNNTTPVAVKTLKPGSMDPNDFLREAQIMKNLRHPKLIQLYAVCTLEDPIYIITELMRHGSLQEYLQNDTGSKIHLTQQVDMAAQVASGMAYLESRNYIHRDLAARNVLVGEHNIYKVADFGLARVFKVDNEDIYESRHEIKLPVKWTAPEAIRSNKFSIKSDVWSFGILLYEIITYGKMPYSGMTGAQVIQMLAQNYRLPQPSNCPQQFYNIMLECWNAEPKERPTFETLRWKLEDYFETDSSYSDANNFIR

In the case of `Cn1cc(-c2ccc3occ(-c4ccccc4-c4ccccc4)c3n2)cn1`, the inhibitory constant (Ki) in assay [1], in assay [2], in assay [3] and in assay [4] was > 10000 nM throughout.

For the compound `C[C@H]1Oc2cc(cnc2N)-c2c(nn(C)c2C#N)CN(C)C(=O)c2ccc(F)cc21` [LORLATINIB], the inhibitory constant (Ki) worked out at 6 nM in assay [5]; 56 nM in [6]; 319 nM in assay [7]; 24 nM in assay [8]; 529 nM in assay [9]; 2.7 nM in assay [10]. Moreover, the inhibition constant (Ki) in assay [11] is 3.3 nM; in [12], 53 nM; in [13], 14 nM; in assay [14], 46 nM; in assay [15], 17 nM; in assay [16], 17 nM.

`CNCCN1CCC(OCc2ccccc2)CC1`: the inhibition in assay [17] was 31%. This compound also had a % activity remaining in assay [18] of 78%. Besides, the values for the Ki in [19] and in assay [21] were 54 nM and 574 nM, respectively. Besides, the values for the dTm in [20] and in assay [22] were 3.3 K and 11.3 K, respectively.

On to `O=C1c2ccc(Nc3ccc(F)cc3F)cc2CCc2ccc(OC[C@H](O)CO)cc21` [Skepinone-L], for which the % of control was found to be 53% in assay [23] and 37% in [25]. Further, in [24], the Ki was > 10000 nM.

For `CCC(=O)N1CCOc2c(cc(-c3ccc(OC)c(OC)c3)cc2OC[C@H]2CCCN(C)C2)C1`, the dTm in assay [26] worked out at 0.58 K; in assay [27], 8.6 K; in [30], 1.55 K; in [31] it was 1.35 K; in assay [33], 7.8 K; in assay [34], 2.09 K. Moreover, the Kd is 170 nM in assay [28] and > 20000 nM in assay [29]. For the same compound, the values for the % of inhibition in [32] and in [35] were 89% and 67%, respectively.

With `COc1cc(C#N)ccc1S(=O)(=O)Nc1ccc2c(c1)cc(C)c(=O)n2C`, the mean % of control turned out to be 80% in assay [36], 61% in assay [38] and 62% in assay [39]. For the same compound, the Kd in assay [37] is 3900 nM.
